Experimental data reported in patent publication US20210276987A1, “PHARMACEUTICAL AGENTS FOR USE IN SMOKING AND TOBACCO CESSATION” (Washington State University, priority 2018, published 2021).
Structures can show the parent of a compound that is named as a salt. Where two headings read alike, the source gives them in different places. Blank lines part the entries; values can stand above or below the compound they belong to.

How the values were obtained:
CYP2A6 [1] = biological target: T1, CYP2A6 (Homo sapiens, UniProt P11509); assay: biochemical; conditions: IC50 against CYP2A6 (μM), pooled human liver microsomes
T1 sequence (P11509 1-494): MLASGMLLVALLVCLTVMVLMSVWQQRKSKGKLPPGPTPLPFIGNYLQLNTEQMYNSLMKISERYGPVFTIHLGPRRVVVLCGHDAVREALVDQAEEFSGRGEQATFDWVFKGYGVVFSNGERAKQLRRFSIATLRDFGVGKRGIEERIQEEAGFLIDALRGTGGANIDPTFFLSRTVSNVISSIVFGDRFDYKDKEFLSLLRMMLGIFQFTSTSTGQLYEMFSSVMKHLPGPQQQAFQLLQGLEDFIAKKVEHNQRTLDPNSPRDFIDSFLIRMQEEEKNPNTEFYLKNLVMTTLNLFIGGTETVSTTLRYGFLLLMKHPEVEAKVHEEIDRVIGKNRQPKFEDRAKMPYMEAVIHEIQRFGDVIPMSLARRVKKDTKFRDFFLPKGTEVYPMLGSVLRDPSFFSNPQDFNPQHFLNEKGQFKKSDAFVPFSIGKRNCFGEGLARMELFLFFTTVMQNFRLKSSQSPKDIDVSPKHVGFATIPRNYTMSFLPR

UGT2B10 = biological target: T2, UGT2B10 (Homo sapiens, UniProt P36537); assay: biochemical
T2 sequence (P36537 24-528): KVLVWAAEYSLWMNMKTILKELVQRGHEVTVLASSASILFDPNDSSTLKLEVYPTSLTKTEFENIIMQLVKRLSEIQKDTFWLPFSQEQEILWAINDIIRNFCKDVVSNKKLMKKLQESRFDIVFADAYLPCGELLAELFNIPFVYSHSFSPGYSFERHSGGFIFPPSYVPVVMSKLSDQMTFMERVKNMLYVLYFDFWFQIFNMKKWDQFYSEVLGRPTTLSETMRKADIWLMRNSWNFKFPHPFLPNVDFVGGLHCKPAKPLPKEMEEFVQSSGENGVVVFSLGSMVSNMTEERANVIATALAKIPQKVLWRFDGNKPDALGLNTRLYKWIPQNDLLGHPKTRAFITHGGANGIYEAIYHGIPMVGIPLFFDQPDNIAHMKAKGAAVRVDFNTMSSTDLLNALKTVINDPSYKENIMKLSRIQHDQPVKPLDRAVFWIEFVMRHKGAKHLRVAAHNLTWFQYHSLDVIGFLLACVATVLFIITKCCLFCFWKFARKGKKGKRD
Experimental: Initial screening assays were performed as described above for the CYP assays using 1 μM or 10 μM of each of the NAs. The inhibitory effects of each agent against UGT2B10 was performed using the known UGT2B10-specific probe substrate, nicotine, in pooled human liver microsomes. […] Pre-incubations containing 500 μM nicotine and 1 or 10 μM NA were subsequently performed at 37° C. in 50 mM Tris-HCl buffer (pH 7.5, in a final volume of 50 μL) and 10 mM MgCl2 for 5 minutes.

CYP2C8 = biological target: T3, CYP2C8 (Homo sapiens, UniProt P10632); conditions: Table 8, thiophene and furan analogues
T3 sequence (P10632 1-490): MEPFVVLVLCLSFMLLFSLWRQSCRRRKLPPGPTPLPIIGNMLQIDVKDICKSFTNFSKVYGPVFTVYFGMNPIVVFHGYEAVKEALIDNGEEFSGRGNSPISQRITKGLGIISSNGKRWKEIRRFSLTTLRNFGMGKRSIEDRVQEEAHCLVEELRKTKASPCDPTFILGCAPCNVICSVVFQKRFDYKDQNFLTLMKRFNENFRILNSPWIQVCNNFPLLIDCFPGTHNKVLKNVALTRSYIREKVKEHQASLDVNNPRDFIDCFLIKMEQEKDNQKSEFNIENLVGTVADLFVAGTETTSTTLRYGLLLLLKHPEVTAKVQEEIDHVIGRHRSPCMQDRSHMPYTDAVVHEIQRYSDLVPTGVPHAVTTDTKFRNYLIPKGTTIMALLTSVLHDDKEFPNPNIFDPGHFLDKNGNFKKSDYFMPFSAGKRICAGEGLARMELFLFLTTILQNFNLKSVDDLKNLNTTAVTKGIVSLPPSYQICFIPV

CYP2C9 = CYP2C9 (Homo sapiens, UniProt P11712); assay: CYP2C9 inhibition assay, human liver microsomes, diclofenac probe (cocktail); conditions: Table 8, thiophene and furan analogues
CYP2C9, sequence (P11712 whole entry): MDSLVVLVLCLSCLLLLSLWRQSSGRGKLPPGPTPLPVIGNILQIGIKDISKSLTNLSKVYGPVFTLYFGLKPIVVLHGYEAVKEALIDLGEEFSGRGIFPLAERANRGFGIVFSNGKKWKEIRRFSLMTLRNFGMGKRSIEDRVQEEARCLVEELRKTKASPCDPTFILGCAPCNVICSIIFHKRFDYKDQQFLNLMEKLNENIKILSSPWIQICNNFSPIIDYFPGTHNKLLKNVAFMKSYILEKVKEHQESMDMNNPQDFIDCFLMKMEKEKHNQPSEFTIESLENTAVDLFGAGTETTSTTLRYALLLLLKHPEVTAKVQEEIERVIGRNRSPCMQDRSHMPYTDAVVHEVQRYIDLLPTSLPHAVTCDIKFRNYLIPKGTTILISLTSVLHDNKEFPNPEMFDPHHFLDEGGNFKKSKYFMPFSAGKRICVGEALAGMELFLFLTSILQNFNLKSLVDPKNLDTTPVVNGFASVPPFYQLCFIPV

CYP2E1 = CYP2E1 (Homo sapiens, UniProt P05181); conditions: Table 8, thiophene and furan analogues
CYP2E1, sequence (P05181 whole entry): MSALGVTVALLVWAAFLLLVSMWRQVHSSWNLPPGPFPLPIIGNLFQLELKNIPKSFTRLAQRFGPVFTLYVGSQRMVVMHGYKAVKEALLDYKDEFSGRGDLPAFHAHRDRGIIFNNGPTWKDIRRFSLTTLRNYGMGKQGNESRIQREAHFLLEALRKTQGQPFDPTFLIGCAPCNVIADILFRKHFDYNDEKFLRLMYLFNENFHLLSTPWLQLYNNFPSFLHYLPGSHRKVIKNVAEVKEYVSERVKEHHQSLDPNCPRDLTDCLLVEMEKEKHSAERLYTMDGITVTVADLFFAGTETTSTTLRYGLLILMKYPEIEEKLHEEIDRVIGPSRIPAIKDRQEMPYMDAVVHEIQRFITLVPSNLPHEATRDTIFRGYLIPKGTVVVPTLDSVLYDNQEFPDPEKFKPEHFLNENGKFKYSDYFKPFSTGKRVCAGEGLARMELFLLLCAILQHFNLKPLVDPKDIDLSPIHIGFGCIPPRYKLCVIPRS

in vitro = conditions: for half-life at 10 μM: human, microsomes; for T1/2 (min) in human liver microsomes: 10 μM, pH 7.4
Experimental: In vitro stability studies. […] Half-lives were calculated using the one-phase exponential decay equation (GraphPad).

CYP2B6 = biological target: T4, CYP2B6 (Homo sapiens, UniProt P20813); conditions: Table 8, thiophene and furan analogues
T4 sequence (P20813 1-491): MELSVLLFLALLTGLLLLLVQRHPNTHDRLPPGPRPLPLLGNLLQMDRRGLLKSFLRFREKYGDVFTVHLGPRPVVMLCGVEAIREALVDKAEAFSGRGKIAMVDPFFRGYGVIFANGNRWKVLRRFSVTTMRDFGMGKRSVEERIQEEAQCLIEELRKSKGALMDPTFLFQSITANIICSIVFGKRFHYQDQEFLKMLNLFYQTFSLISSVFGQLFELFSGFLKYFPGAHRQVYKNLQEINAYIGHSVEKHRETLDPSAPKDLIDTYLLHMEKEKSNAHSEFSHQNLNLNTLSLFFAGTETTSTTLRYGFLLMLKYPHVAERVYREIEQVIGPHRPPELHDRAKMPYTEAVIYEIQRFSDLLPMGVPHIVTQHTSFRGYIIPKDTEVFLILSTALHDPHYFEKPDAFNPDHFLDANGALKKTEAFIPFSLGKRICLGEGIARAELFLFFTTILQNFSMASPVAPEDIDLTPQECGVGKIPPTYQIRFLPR

CYP2C19 = CYP2C19 (Homo sapiens, UniProt P33261); assay: CYP2C19 inhibition assay, human liver microsomes, omeprazole probe (cocktail); conditions: Table 8, thiophene and furan analogues
CYP2C19, sequence (P33261 whole entry): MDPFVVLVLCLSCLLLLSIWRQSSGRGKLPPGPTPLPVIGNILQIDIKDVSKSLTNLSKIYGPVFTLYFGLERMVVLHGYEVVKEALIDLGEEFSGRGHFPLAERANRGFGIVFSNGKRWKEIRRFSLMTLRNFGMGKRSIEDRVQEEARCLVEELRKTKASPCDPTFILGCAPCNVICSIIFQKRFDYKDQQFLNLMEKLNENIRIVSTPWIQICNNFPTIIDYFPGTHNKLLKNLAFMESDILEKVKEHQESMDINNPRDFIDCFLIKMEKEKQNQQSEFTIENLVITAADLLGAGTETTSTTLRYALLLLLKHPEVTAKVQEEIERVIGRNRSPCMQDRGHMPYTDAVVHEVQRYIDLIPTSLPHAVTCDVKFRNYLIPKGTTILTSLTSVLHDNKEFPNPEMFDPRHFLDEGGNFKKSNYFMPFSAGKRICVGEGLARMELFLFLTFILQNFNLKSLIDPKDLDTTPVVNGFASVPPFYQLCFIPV

CYP1A2 = biological target: T5, CYP1A2 (Homo sapiens, UniProt P05177); assay: CYP1A2 inhibition assay, human liver microsomes, phenacetin probe (cocktail); conditions: Table 8, thiophene and furan analogues
T5 sequence (P05177 1-516): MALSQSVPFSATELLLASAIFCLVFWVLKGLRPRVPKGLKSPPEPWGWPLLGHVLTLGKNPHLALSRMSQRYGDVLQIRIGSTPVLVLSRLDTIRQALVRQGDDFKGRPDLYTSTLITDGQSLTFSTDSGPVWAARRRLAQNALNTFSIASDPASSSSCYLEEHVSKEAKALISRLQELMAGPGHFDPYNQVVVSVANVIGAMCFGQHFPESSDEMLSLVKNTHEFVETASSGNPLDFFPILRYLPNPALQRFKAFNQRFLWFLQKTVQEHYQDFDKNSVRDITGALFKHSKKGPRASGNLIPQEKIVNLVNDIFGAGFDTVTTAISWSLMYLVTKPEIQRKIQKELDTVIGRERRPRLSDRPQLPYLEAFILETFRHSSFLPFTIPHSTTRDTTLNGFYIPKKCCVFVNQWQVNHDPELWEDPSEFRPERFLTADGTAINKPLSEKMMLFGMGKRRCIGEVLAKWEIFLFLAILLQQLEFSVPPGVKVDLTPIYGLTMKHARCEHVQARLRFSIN

CYP2D6 = CYP2D6 (Homo sapiens, UniProt P10635); assay: CYP2D6 inhibition assay, human liver microsomes, dextromethorphan probe (cocktail); conditions: Table 8, thiophene and furan analogues
CYP2D6, sequence (P10635 whole entry): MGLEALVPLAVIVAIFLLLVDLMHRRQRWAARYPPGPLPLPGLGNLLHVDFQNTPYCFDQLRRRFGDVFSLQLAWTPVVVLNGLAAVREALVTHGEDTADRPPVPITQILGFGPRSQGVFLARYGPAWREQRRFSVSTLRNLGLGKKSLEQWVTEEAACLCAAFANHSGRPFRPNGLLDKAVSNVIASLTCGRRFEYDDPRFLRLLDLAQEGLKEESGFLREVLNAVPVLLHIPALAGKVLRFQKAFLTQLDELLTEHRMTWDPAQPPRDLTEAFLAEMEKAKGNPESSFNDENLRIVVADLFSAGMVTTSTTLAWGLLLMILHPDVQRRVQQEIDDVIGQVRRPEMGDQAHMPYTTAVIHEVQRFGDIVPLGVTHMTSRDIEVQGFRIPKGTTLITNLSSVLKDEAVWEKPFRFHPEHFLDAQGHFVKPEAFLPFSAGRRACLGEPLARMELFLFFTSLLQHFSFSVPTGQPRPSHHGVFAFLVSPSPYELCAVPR

CYP2A6 [2] = biological target: T1, CYP2A6; conditions: both, human, microsomes, pH 7.4
[3] = Table 5, alkyne linker agents, coumarin […]
[4] = IC50 against UGT2B10 (μM), Table 9, pooled human liver microsomes, nicotine 500 μM
[5] = pH 7.4, half-life (T1/2) in human liver microsomes

- IC50 (CYP2A6 [1]; [3]): > 10 µM
- IC50 (UGT2B10; [4]): 770 µM
Structure (SMILES): NCC#Cc1cncc2ccccc12 [Compound A, 3-(isoquinolin-4-yl)prop-2-yn-1-amine Dihydrochloride]

- IC50 (CYP2A6 [1]; Table 7, thiophene and furan nicotine analogues, coumarin): 0.11 µM
- IC50 ratio CYP2C8/CYP2A6 (CYP2C8): 227
- IC50 ratio CYP2C9/CYP2A6 (CYP2C9): 182
- IC50 ratio CYP2E1/CYP2A6 (CYP2E1): 47
- half-life at 10 μM (in vitro; pH 7.4, T1/2 (min) in human liver microsomes): 0.183 h
- half-life at 10 μM (in vitro; [5]): < 0.417 h
- IC50 ratio CYP2B6/CYP2A6 (CYP2B6): 7.4
- IC50 ratio CYP2C19/CYP2A6 (CYP2C19): 6.8
- IC50 ratio CYP1A2/CYP2A6 (CYP1A2): 17
- IC50 ratio CYP2D6/CYP2A6 (CYP2D6): 71
Structure (SMILES): NCc1ccc(-c2cnccc2Cl)s1 [Compound AB, (5-(4-chloropyridin-3-yl)thiophene-2-yl)methanamine Dihydrochloride]

Structure (SMILES): NCc1ccc(-c2cnccc2-c2cccnc2)o1 [Compound AG, (5-([3,4′-Bipyridin]-3′-yl)furan-2-yl)methanamine Trihydrochloride]
- T1/2 (min) in human liver microsomes (in vitro): >120 min
- half-life at 10 μM (in vitro; [5]): > 1.5 h
- IC50 (CYP2A6 [2]): 0.38 µM

Structure (SMILES): NCc1ccc(-c2cnccc2-c2ccncc2)s1 [Compound AJ, (5-([4,4′-Bipyridin]-3′-yl)thiophene-2-yl)methanamine Trihydrochloride]
- T1/2 (min) in human liver microsomes (in vitro): 32 min
- IC50 (CYP2A6 [2]): 0.33 µM

Structure (SMILES): NCc1ccc(-c2cnccc2-c2cncnc2)o1 [Compound AK, (5-(4-(Pyrimidin-5-yl)pyridin-3-yl)furan-2-yl)methanamine Trihydrochloride]
- T1/2 (min) in human liver microsomes (in vitro): >120 min
- half-life at 10 μM (in vitro; [5]): > 1.5 h
- IC50 (CYP2A6 [2]): 1.3 µM

Structure (SMILES): NCc1ccc(-c2cnccc2-c2cncnc2)s1 [Compound AL, (5-(4-(Pyrimidin-5-yl)pyridin-3-yl)thiophene-2-yl)methanamine Trihydrochloride]
- T1/2 (min) in human liver microsomes (in vitro): >120 min
- half-life at 10 μM (in vitro; [5]): > 1.5 h
- IC50 (CYP2A6 [2]): 1.2 µM

- IC50 (CYP2A6 [1]; [3]): > 10 µM
- IC50 (UGT2B10; [4]): > 1000 µM
- IC50 (UGT2B10; IC50 against UGT2B10, little to no inhibition): > 1000 µM
Structure (SMILES): NCC#Cc1cnc2ccccc2c1 [Compound B, 3-(quinolin-3-yl)prop-2-yn-1-amine]
